According to patent US10214492B2, “Heterocyclic inhibitors of MCT4” (Vettore, LLC, priority 2016, dated 2019):

Experiments:
[1] = Pharmacokinetic assay in mouse (IV 3 mg/kg, PO 10 mg/kg); format: in vivo; settings: Male CD1 mouse; for Mouse F: oral bioavailability; for Mouse F / half-life: PO 10 mg/kg; for half-life / Vd: plasma; for half-life: read-out: Mouse t1/2 (converted); for Vd: volume of distribution, read-out: Mouse Vss
Excerpt: (§1) The following are assays that may be used to evaluate the pharmacokinetic properties of Formula (I) in mouse or rat. The assays follow a common procedure recited below.
(§2) 1. […] For PO (oral gavage), DMSO/PEG400 (10:90). Formulations freshly prepared on the day of dosing or prior to dosing. Storage at room temperature.
(§3) 2. Test Species: For Mouse: Male CD1 strain, approximately 6-8 weeks in age, approximately 20-30 g. For Rat: Male Sprague-Dawley strain, approximately 6-8 weeks in age, approximately 200-300 g.
(§4) 3. Dose Level: For IV, 3 mg/kg. For PO, 10 mg/kg.
(§5) 4. Number of animals: 3 per assay.
(§6) 5. PK time points: For IV (plasma): 5 min, 15 min, 1, 2, 4, 6, 8, 24 h post dose. For PO (plasma): 15 min, 30 min, 1, 2, 4, 6, 8, 24 h post dose.
(§7) 6. Blood Sample Collection and Processing. Blood was collected (˜0.2 mL per time point) from jugular vein. Blood of each sample was transferred into plastic micro centrifuge tubes containing anticoagulant of EDTA-K2. Blood samples were centrifuged at 2,000 g for 5 minutes at 4° C. to obtain plasma.
(§8) 7. Samples Analysis: Plasma samples were analyzed using LC/MS/MS method, and pharmacokinetic parameters (half-life: t1/2; oral bioavailability: F; volume of distribution: Vss).

[2] = Metabolic stability in human liver microsomes (in vitro t1/2); format: in vitro ADME; settings: for half-life at 2 µM: human liver microsomes 0.5 mg/mL, 2 μM compound, read-out: Human microsome t1/2, min; for Human microsome % 60 min: human liver microsomes
Summary of the method: (§9)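 Liver microsomes (0.5 mg/mL final) incubated with test compound at 2 μM final plus NADPH; samples taken at 0, 15, 30, 45 and 60 min. Parent remaining quantified by LC-MS/MS; k from ln(% remaining) vs time regression, in vitro t1/2 = −0.693/k.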

[3] = Pharmacokinetic assay in rat (IV 3 mg/kg, PO 10 mg/kg); format: in vivo; settings: Male Sprague-Dawley rat; for Rat F: oral bioavailability; for Rat F / half-life: PO 10 mg/kg; for half-life / Vd: plasma; for half-life: read-out: Rat t1/2 (converted); for Vd: volume of distribution, read-out: Rat Vss
Excerpt: as §1, §2, §3, §4, §5, §6, §7, §8

[4] = Metabolic stability in mouse liver microsomes (in vitro t1/2); format: in vitro ADME; settings: for half-life at 2 µM / Mouse microsome t1/2, min: mouse liver microsomes 0.5 mg/mL, 2 μM compound; for half-life at 2 µM: read-out: Mouse microsome t1/2, min; for Mouse microsome % 60 min: mouse liver microsomes
Summary of the method: as §9

[5] = Adjuvant-induced arthritis model in rat: Difference of Weight Bearing test (DWB); format: in vivo; settings: SD rat, CFA-induced arthritis; PO 3 days post CFA; compared to Dexamethasone
[6] = Adjuvant-induced arthritis model in rat: Mechanical Allodynia test (MA, Von Frey); format: in vivo; settings: SD rat, CFA-induced arthritis; PO 3 days post CFA; compared to Dexamethasone
MCT4 = MCT4 (Homo sapiens (Human), UniProt O15427); experiment: Assay 3: MCT4-mediated lactate transport in MDA-MB-231 breast cancer cells; format: cell-based; settings: MDA-MB-231 cells; lactate transport
Chain of MCT4 (O15427 whole entry, looked up): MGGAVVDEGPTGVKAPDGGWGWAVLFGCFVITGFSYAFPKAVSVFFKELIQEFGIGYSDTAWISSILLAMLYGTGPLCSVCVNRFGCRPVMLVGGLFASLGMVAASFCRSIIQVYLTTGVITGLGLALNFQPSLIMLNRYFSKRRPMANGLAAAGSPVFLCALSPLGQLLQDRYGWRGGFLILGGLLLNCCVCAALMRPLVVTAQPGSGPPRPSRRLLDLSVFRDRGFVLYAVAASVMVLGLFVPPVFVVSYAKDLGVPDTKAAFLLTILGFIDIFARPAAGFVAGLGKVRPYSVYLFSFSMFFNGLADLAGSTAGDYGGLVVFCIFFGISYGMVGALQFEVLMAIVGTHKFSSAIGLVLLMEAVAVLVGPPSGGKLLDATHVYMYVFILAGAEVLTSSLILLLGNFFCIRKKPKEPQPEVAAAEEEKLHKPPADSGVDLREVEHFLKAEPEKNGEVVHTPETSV
Chain of MCT4 (P35613 whole entry partner, looked up): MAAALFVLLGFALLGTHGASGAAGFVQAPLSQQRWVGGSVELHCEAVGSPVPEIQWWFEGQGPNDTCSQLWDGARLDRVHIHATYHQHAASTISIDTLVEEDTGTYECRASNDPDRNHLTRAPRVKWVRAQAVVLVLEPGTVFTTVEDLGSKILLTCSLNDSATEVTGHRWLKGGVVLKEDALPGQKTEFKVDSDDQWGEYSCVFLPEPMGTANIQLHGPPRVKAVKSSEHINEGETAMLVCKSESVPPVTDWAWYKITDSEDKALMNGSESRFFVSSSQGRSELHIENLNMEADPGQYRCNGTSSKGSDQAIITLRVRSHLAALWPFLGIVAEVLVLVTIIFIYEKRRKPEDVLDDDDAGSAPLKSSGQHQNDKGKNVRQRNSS
Summary of the method: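 MDA-MB-231 cells loaded with BCECF-AM, 5 min at 37° C, washed and resuspended in Tyrode's Solution, pH 7.4. MCT4 lactate/proton symport followed as the intracellular pH change reported by BCECF fluorescence.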

MCT1 = MCT1 (Homo sapiens (Human), UniProt P53985); experiment: Assay 4: MCT1-mediated lactate transport in BT20 breast cancer cells; format: cell-based; settings: Table 27
Chain of MCT1 (P53985 whole entry): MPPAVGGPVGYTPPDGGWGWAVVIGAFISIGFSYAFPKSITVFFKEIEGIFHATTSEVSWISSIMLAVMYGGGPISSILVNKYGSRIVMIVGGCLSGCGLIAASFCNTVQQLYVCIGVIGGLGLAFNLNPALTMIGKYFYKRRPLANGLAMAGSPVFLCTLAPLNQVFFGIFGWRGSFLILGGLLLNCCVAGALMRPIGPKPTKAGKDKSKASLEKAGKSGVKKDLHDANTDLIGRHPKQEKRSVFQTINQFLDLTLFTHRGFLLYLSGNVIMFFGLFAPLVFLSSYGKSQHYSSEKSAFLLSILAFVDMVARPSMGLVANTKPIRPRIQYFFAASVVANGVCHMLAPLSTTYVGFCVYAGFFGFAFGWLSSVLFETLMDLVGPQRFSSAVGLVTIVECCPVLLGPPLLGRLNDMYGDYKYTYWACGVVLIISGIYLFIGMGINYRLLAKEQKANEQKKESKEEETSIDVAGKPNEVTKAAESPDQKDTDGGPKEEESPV
Chain of MCT1 (P35613 140-385 partner): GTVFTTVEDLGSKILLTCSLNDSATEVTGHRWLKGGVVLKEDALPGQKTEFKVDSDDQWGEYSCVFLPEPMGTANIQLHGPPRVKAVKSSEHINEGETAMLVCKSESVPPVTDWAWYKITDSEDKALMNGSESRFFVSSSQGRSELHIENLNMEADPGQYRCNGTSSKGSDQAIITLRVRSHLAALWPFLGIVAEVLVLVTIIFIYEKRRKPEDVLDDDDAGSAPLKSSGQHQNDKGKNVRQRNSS
Summary of the method: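 BT20 cells loaded with BCECF-AM (30 mM DMSO stock) for 5 min at 37° C, washed and resuspended in Tyrode's Solution pH 7.4. Lactate uptake tracked via BCECF intracellular pH signal after adding 10 mM L-lactate.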

[7] = Metabolic stability in rat liver microsomes (in vitro t1/2); format: in vitro ADME; settings: for half-life at 2 µM: read-out: Rat microsome t1/2, min; for Rat microsome % 60 min: rat liver microsomes
Summary of the method: as §9

[8] = rat liver microsomes 0.5 mg/mL, 2 μM compound

Structure (SMILES) | Mouse F [1] [%] | half-life [1] [h] | Vd [1] [L/kg] | half-life at 2 µM [2] [h] | Human microsome % 60 min [2] [%] | Rat F [3] [%] | half-life [3] [h] | Vd [3] [L/kg] | half-life at 2 µM [4] [h] | Mouse microsome % 60 min [4] [%] | IC50 (MCT4) [nM] | IC50 (MCT1) [nM] | half-life at 2 µM [7, 8] [h] | Rat microsome % 60 min [7] [%] | Mouse microsome t1/2, min [4] | Rat microsome t1/2, min [7, 8] | Difference in Weight Bearing, Minimal Efficacious Dose [5] [mg/kg] | Mechanical Allodynia (Von Frey), Minimal Efficacious Dose [6] [mg/kg]
COc1cccc(-c2cc(COC(C)(C)C(=O)O)nn2Cc2ccccc2Cl)c1 [Example 14, 2-([1-[(2-Chlorophenyl)methyl]-5-(3-methoxyphenyl)1H-pyrazol-3-yl]methoxy)-2-methylpropanoic acid] | 100 | 5.4 | 0.79 | 4.08 | 82 | 64 | 3.8 | 1.3 | 21.7 | 95 | – | – | – | – | – | – | 30 | 30
CC(C)(OCc1cc(-c2cccc(OC3CC3)c2)n(-c2ccccc2Cl)n1)C(=O)O [Example 110, 2-([1-(2-Chlorophenyl)-5-(3-cyclo-propoxyphenyl)-1H-pyrazol-3-yl)methoxy)-2-methylpropanoic acid] | 100 | 26.7 | 0.81 | 39.6 | 99 | 84 | 4.7 | 0.34 | 3.72 | 86 | 20 | 30000 | 9.15 | 94 | – | – | 10 | 10
Cn1ncc2cccc(-n3nc(COC(C)(C)C(=O)O)cc3-c3cccc(OC4CC4)c3)c21 [Example 191, 2-([5-(3-Cyclopropoxyphenyl)-1-(1-methyl-1H-indazol-7-yl)-1H-pyrazol-3-yl]-methoxy)-2-methylpropanoic acid] | – | – | – | 23.4 | 98 | 97 | 6.3 | 1 | 16.8 | 97 | 17 | 16000 | 9.27 | 94 | – | – | >10 | >10
COc1cc(OC)cc(-c2cc(COC(C)(C)C(=O)O)nn2Cc2ccccc2Cl)c1 [Example 224, 2-([1-[(2-Chlorophenyl)methyl]-5-(3,5-di-methoxyphenyl)-1H-pyrazol-3-yl]methoxy)-2-methylpropanoic acid] | – | – | – | 12.3 | 91 | 53 | 2.6 | 1.3 | 13.8 | 98 | 4.1 | 30000 | 2.2 | 73 | – | – | ≤10 | ≤10
CC(C)(OCc1cc(-c2cccc(OC3CCC3)c2)n(-c2ccccc2N2CCC2)n1)C(=O)O [Example 260, 2-([1-[2-(Azetidin-1-yl)phenyl]-5-(3-cyclobutoxyphenyl)-1H-pyrazol-3-yl]methoxy)-2-methylpropanoic acid] | 86 | 5.2 | 0.22 | – | – | 85 | 3.7 | 0.2 | – | – | 0.83 | 26000 | – | – | – | – | 1 | 1

Further lines, with some results ahead:

Mouse F [1] [%] | half-life [1] [h] | Vd [1] [L/kg] | half-life at 2 µM [2] [h] | Human microsome % 60 min [2] [%] | Rat F [3] [%] | half-life [3] [h] | Vd [3] [L/kg] | half-life at 2 µM [4] [h] | Mouse microsome % 60 min [4] [%] | IC50 (MCT4) [nM] | IC50 (MCT1) [nM] | half-life at 2 µM [7, 8] [h] | Rat microsome % 60 min [7] [%] | Mouse microsome t1/2, min [4] | Rat microsome t1/2, min [7, 8] | Structure (SMILES) | Difference in Weight Bearing, Minimal Efficacious Dose [5] [mg/kg] | Mechanical Allodynia (Von Frey), Minimal Efficacious Dose [6] [mg/kg]
89 | 4.9 | 9.9 | 5.68 | 90 | 43 | 3.6 | 1.2 | – | 103 | 2.8 | 25000 | 28.6 | 98 | ∞ | – | CCn1ncc2ccc(-c3cc(COC(C)(C)C(=O)O)nn3Cc3ccccc3Cl)cc21 [Example 150, 2-([1-[(2-Chlorophenyl)methyl]-5-(1-ethyl-1H-indazol-6-yl)-1H-pyrazol-3-yl]-methoxy)-2-methylpropanoic Acid] | 10 | 10
100 | 2.6 | 2 | 7.85 | 87 | 18 | 2.4 | 1.1 | – | 99 | 2 | 32000 | – | 95 | ∞ | ∞ | CC(C)COc1cccc(-c2cc(COC(C)(C)C(=O)O)nn2-c2cccc3cnn(C)c23)c1 [Example 170, 2-methyl-2-([1-(1-methyl-1H-indazol-7-yl)-5-[3-(2-methylpropoxy)phenyl]-1H-pyrazol-3-yl]methoxy]propanoic acid] | 3 | 3
94 | 2.7 | 1.1 | – | – | 100 | 4.6 | 2.5 | – | – | 0.35 | 10000 | – | – | – | – | CCOc1ccccc1Cn1nc(CO[C@](C)(CC)C(=O)O)cc1-c1cc(OC)cc(OC)c1 [Example 264, (2R)-2-([5-(3,5-Dimethoxyphenyl)-1-[(2-ethoxyphenyl)methyl]-1H-pyrazol-3-yl]methoxy)-2-methylbutanoic acid] | 1 | 1
100 | 3.8 | 0.36 | – | – | 100 | 2.7 | 0.23 | – | – | 0.36 | 64000 | – | – | – | – | CC[C@@](C)(OCc1cc(-c2cccc(OC3CC3)c2)n(-c2ccccc2N2CCC2)n1)C(=O)O [Example 266] | 3 | 3
64 | 3.3 | 3.9 | – | – | 54 | 2.6 | 7.7 | – | – | 0.57 | 11000 | – | – | – | – | CCCn1ncc2ccc(-c3cc(CO[C@](C)(CC)C(=O)O)nn3-c3ccccc3N3CCC3)cc21 [Example 267, (2R)-2-([1-(2-(azetidin-1-yl)phenyl]-5-(1-propyl-1H-indazol-6-yl)-1H-pyrazol-3-yl]methoxy)-2-methylbutanoic acid] | 3 | 3
77 | 2.7 | 0.77 | – | – | 57 | 2.2 | 0.76 | – | – | 0.3 | 36000 | – | – | – | – | CCn1ncc2ccc(-c3cc(CO[C@](C)(CC)C(=O)O)nn3-c3ccccc3N3CCCC3)cc21 [Example 268, (2R)-2-([5-(1-ethyl-1H-indazol-6-yl)-1-[2-(pyrrolidin-1-yl)phenyl)-1H-pyrazol-3-yl]methoxy)-2-methylbutanoic acid] | 1 | 1
